Test results as given in US20230312587A1, “PTERIDINONE COMPOUNDS AND USES THEREOF” (Vertex Pharmaceutical Incorporated, priority 2018, published 2023).

Tested on: β-catenin-TCF-mediated reporter transcription activity in Colo 205 cells
Test: Colo 205 reporter assay (TCF/LEF luciferase)
Format: cell-based
Conditions: Homo sapiens, 5 h; Colo 205 TCF/LEF luciferase reporter, five hours after addition of compound; read-out: TCF reporter Colo205 IC50
Procedure, shortened: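 Luciferase signal from a TCF/LEF-driven reporter, stably integrated in Colo 205 colon cancer cells, was measured 5 h after compound addition.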

**Q.** How did the IC50 turn out when `Cc1nc(N[C@H]2C[C@@H](NC(=O)Oc3ccc(F)cc3)C2)nc2c1NC(=O)[C@H](C)N2C` [Compound 464, 4-fluorophenyl (cis-3-(((S)-4,7,8-trimethyl-6-oxo-5,6,7,8-tetrahydropteridin-2-yl)amino)cyclobutyl)carbamate] was run?
**A.** 0.3 to 1 µM

**Q.** Which IC50 does the source give for `Cc1nc(N[C@H]2C[C@H](NC(=O)Oc3ccc(F)cc3)C2)nc2c1NC(=O)[C@H](C)N2C` [Compound 465, 4-fluorophenyl (trans-3-(((S)-4,7,8-trimethyl-6-oxo-5,6,7,8-tetrahydropteridin-2-yl)amino)cyclobutyl)carbamate] here?
**A.** 0.3 to 1 µM

**Q.** With `Cc1nc(N[C@H]2C[C@H](NC(=O)Oc3cc(F)c(F)c(F)c3)C2)nc2c1NC(=O)[C@H](C)N2C` [Compound 483, 3,4,5-trifluorophenyl (trans-3-(((S)-4,7,8-trimethyl-6-oxo-5,6,7,8-tetrahydropteridin-2-yl)amino)cyclobutyl)carbamate] as the molecule, how does the IC50 read?
**A.** 1 to 5 µM

**Q.** Which IC50 does the source give for `Cc1nc(N[C@H]2C[C@@H](NC(=O)Oc3cc(F)c(F)c(F)c3)C2)nc2c1NC(=O)[C@H](C)N2C` [Compound 484, 3,4,5-trifluorophenyl (cis-3-(((S)-4,7,8-trimethyl-6-oxo-5,6,7,8-tetrahydropteridin-2-yl)amino)cyclobutyl)carbamate] here?
**A.** 1 to 5 µM

Same assay, conditions: Homo sapiens, COLO 205, 5 h, Colo 205 TCF/LEF luciferase reporter, five hours after addition of compound; read-out: TCF reporter Colo205 IC50

**Q.** Which IC50 does the source give for `COc1c(F)cc(Cn2cc(CNc3nc(C)c4c(n3)N(C)[C@@H](C3CC3)C(=O)N4)cn2)cc1F` [Compound 457, (S)-7-cyclopropyl-2-(((1-(3,5-difluoro-4-methoxybenzyl)-1H-pyrazol-4-yl)methyl)amino)-4,8-dimethyl-7,8-dihydropteridin-6(5H)-one] here?
**A.** < 0.3 µM

**Q.** How did the IC50 turn out when `Cc1nc(N[C@H]2C[C@@H](NC(=O)Nc3ccc(F)cc3)C2)nc2c1NC(=O)[C@H](C)N2C` [Compound 458, 1-(4-fluorophenyl)-3-(cis-3-(((S)-4,7,8-trimethyl-6-oxo-5,6,7,8-tetrahydropteridin-2-yl)amino)cyclobutyl)urea] was run?
**A.** 0.3 to 1 µM

**Q.** Which IC50 does the source give for `Cc1nc(N[C@H]2C[C@H](NC(=O)Nc3ccc(F)cc3)C2)nc2c1NC(=O)[C@H](C)N2C` [Compound 459, 1-(4-fluorophenyl)-3-(trans-3-(((S)-4,7,8-trimethyl-6-oxo-5,6,7,8-tetrahydropteridin-2-yl)amino)cyclobutyl)urea] here?
**A.** ≥ 5 µM

**Q.** For `Cc1nc(N[C@H]2C[C@@H](NC(=O)Nc3ccc(F)c(F)c3F)C2)nc2c1NC(=O)[C@H](C)N2C` [Compound 460, 1-(2,3,4-trifluorophenyl)-3-(cis-3-(((S)-4,7,8-trimethyl-6-oxo-5,6,7,8-tetrahydropteridin-2-yl)amino)cyclobutyl)urea], which IC50 is on record?
**A.** < 0.3 µM

**Q.** For `Cc1nc(N[C@H]2C[C@H](NC(=O)Nc3ccc(F)c(F)c3F)C2)nc2c1NC(=O)[C@H](C)N2C` [Compound 461, 1-(2,3,4-trifluorophenyl)-3-(trans-3-(((S)-4,7,8-trimethyl-6-oxo-5,6,7,8-tetrahydropteridin-2-yl)amino)cyclobutyl)urea], which IC50 is on record?
**A.** 1 to 5 µM

**Q.** For `Cc1nc(N[C@H]2C[C@@H](NC(=O)Nc3ccc(Cl)nc3)C2)nc2c1NC(=O)[C@H](C)N2C` [Compound 462, 1-(6-chloropyridin-3-yl)-3-(cis-3-(((S)-4,7,8-trimethyl-6-oxo-5,6,7,8-tetrahydropteridin-2-yl)amino)cyclobutyl)urea], which IC50 is on record?
**A.** 1 to 5 µM

**Q.** For `Cc1nc(N[C@H]2C[C@H](NC(=O)Nc3ccc(Cl)nc3)C2)nc2c1NC(=O)[C@H](C)N2C` [Compound 463, 1-(6-chloropyridin-3-yl)-3-(trans-3-(((S)-4,7,8-trimethyl-6-oxo-5,6,7,8-tetrahydropteridin-2-yl)amino)cyclobutyl)urea], which IC50 is on record?
**A.** ≥ 5 µM

**Q.** Which IC50 does the source give for `Cc1nc(NCc2cnn(Cc3ccc(OC(F)(F)F)cc3)c2)nc2c1NC(=O)[C@H](C(C)C)N2C` [Compound 467, (S)-7-isopropyl-4,8-dimethyl-2-(((1-(4-(trifluoromethoxy)benzyl)-1H-pyrazol-4-yl)methyl)amino)-7,8-dihydropteridin-6(5H)-one] here?
**A.** < 0.3 µM

**Q.** `Cc1nc(NCc2cnn(-c3ccc(C(F)(F)F)nc3)c2)nc2c1NC(=O)[C@H](C)N2C` [Compound 468, (S)-4,7,8-trimethyl-2-(((1-(6-(trifluoromethyl)pyridin-3-yl)-1H-pyrazol-4-yl)methyl)amino)-7,8-dihydropteridin-6(5H)-one] was tested. Which IC50 did it give?
**A.** < 0.3 µM

**Q.** Which IC50 does the source give for `Cc1nc(NCc2cnn(Cc3ccc(C(C)(C)C)nc3)c2)nc2c1NC(=O)[C@H](C(C)C)N2C` [Compound 469, (S)-2-(((1-((6-(tert-butyl)pyridin-3-yl)methyl)-1H-pyrazol-4-yl)methyl)amino)-7-isopropyl-4,8-dimethyl-7,8-dihydropteridin-6(5H)-one] here?
**A.** < 0.3 µM

**Q.** With `Cc1nc(NCc2cnn(Cc3ccc(C(C)(C)C#N)nc3)c2)nc2c1NC(=O)[C@H](C(C)C)N2C` [Compound 470, (S)-2-(5-((4-(((7-isopropyl-4,8-dimethyl-6-oxo-5,6,7,8-tetrahydropteridin-2-yl)amino)methyl)-1H-pyrazol-1-yl)methyl)pyridin-2-yl)-2-methylpropanenitrile] as the molecule, how does the IC50 read?
**A.** < 0.3 µM

**Q.** How did the IC50 turn out when `Cc1nc(N[C@H]2C[C@H](NC(=O)Nc3ccc(C(F)(F)F)nc3)C2)nc2c1NC(=O)[C@H](C)N2C` [Compound 471, 1-(6-(trifluoromethyl)pyridin-3-yl)-3-(trans-3-(((S)-4,7,8-trimethyl-6-oxo-5,6,7,8-tetrahydropteridin-2-yl)amino)cyclobutyl)urea] was run?
**A.** ≥ 5 µM

**Q.** How did the IC50 turn out when `Cc1nc(N[C@H]2C[C@@H](NC(=O)Nc3cc(F)c(F)c(F)c3)C2)nc2c1NC(=O)[C@H](C)N2C` [Compound 472, 1-(3,4,5-trifluorophenyl)-3-(cis-3-(((S)-4,7,8-trimethyl-6-oxo-5,6,7,8-tetrahydropteridin-2-yl)amino)cyclobutyl)urea] was run?
**A.** < 0.3 µM

**Q.** With `Cc1nc(N[C@H]2C[C@@H](NC(=O)Nc3ccc(C(F)(F)F)nc3)C2)nc2c1NC(=O)[C@H](C)N2C` [Compound 473, 1-(6-(trifluoromethyl)pyridin-3-yl)-3-(cis-3-(((S)-4,7,8-trimethyl-6-oxo-5,6,7,8-tetrahydropteridin-2-yl)amino)cyclobutyl)urea] as the molecule, how does the IC50 read?
**A.** < 0.3 µM

**Q.** For `Cc1nc(N[C@H]2C[C@H](NC(=O)Nc3cc(F)c(F)c(F)c3)C2)nc2c1NC(=O)[C@H](C)N2C` [Compound 474, 1-(3,4,5-trifluorophenyl)-3-(trans-3-(((S)-4,7,8-trimethyl-6-oxo-5,6,7,8-tetrahydropteridin-2-yl)amino)cyclobutyl)urea], which IC50 is on record?
**A.** 1 to 5 µM

**Q.** With `Cc1nc(N[C@H]2C[C@@H](NC(=O)c3cc(F)c(F)c(F)c3)C2)nc2c1NC(=O)[C@H](C)N2C` [Compound 475, 3,4,5-trifluoro-N-(cis-3-(((S)-4,7,8-trimethyl-6-oxo-5,6,7,8-tetrahydropteridin-2-yl)amino)cyclobutyl)benzamide] as the molecule, how does the IC50 read?
**A.** 1 to 5 µM

**Q.** Which IC50 does the source give for `Cc1nc(N[C@H]2C[C@H](NC(=O)c3cc(F)c(F)c(F)c3)C2)nc2c1NC(=O)[C@H](C)N2C` [Compound 476, 3,4,5-trifluoro-N-(trans-3-(((S)-4,7,8-trimethyl-6-oxo-5,6,7,8-tetrahydropteridin-2-yl)amino)cyclobutyl)benzamide] here?
**A.** 1 to 5 µM

**Q.** With `Cc1nc(N[C@H]2C[C@@H](NC(=O)Nc3cc(F)c(F)cc3F)C2)nc2c1NC(=O)[C@H](C)N2C` [Compound 477, 1-(2,4,5-trifluorophenyl)-3-(cis-3-(((S)-4,7,8-trimethyl-6-oxo-5,6,7,8-tetrahydropteridin-2-yl)amino)cyclobutyl)urea] as the molecule, how does the IC50 read?
**A.** < 0.3 µM

**Q.** How did the IC50 turn out when `Cc1nc(N[C@H]2C[C@H](NC(=O)Nc3cc(F)c(F)cc3F)C2)nc2c1NC(=O)[C@H](C)N2C` [Compound 478, 1-(2,4,5-trifluorophenyl)-3-(trans-3-(((S)-4,7,8-trimethyl-6-oxo-5,6,7,8-tetrahydropteridin-2-yl)amino)cyclobutyl)urea] was run?
**A.** 1 to 5 µM

**Q.** How did the IC50 turn out when `Cc1nc(NCc2cnn(Cc3ccc(F)cc3)c2)nc2c1NC(=O)[C@H](C(C)C)N2C` [Compound 479, (S)-2-(((1-(4-fluorobenzyl)-1H-pyrazol-4-yl)methyl)amino)-7-isopropyl-4,8-dimethyl-7,8-dihydropteridin-6(5H)-one] was run?
**A.** < 0.3 µM

**Q.** How did the IC50 turn out when `C=C(C)c1ccc(Cn2cc(CNc3nc(C)c4c(n3)N(C)[C@@H](C(C)C)C(=O)N4)cn2)cn1` [Compound 480, (S)-7-isopropyl-4,8-dimethyl-2-(((1-((6-(prop-1-en-2-yl)pyridin-3-yl)methyl)-1H-pyrazol-4-yl)methyl)amino)-7,8-dihydropteridin-6(5H)-one] was run?
**A.** < 0.3 µM

**Q.** How did the IC50 turn out when `Cc1nc(N[C@H]2C[C@@H](NS(=O)(=O)c3cc(F)c(F)c(F)c3)C2)nc2c1NC(=O)[C@H](C)N2C` [Compound 481, 3,4,5-trifluoro-N-(cis-3-(((S)-4,7,8-trimethyl-6-oxo-5,6,7,8-tetrahydropteridin-2-yl)amino)cyclobutyl)benzenesulfonamide] was run?
**A.** 0.3 to 1 µM

**Q.** For `Cc1nc(N[C@H]2C[C@H](NS(=O)(=O)c3cc(F)c(F)c(F)c3)C2)nc2c1NC(=O)[C@H](C)N2C` [Compound 482, 3,4,5-trifluoro-N-(trans-3-(((S)-4,7,8-trimethyl-6-oxo-5,6,7,8-tetrahydropteridin-2-yl)amino)cyclobutyl)benzenesulfonamide], which IC50 is on record?
**A.** ≥ 5 µM

**Q.** `Cc1nc(N[C@H]2C[C@@H](Nc3cc(F)c(F)c(F)c3)C2)nc2c1NC(=O)[C@H](C)N2C` [Compound 485, (S)-4,7,8-trimethyl-2-((cis-3-((3,4,5-trifluorophenyl)amino)cyclobutyl)amino)-7,8-dihydropteridin-6(5H)-one] was tested. Which IC50 did it give?
**A.** < 0.3 µM

**Q.** With `Cc1nc(N[C@H]2C[C@H](Nc3cc(F)c(F)c(F)c3)C2)nc2c1NC(=O)[C@H](C)N2C` [Compound 486, (S)-4,7,8-trimethyl-2-((trans-3-((3,4,5-trifluorophenyl)amino)cyclobutyl)amino)-7,8-dihydropteridin-6(5H)-one] as the molecule, how does the IC50 read?
**A.** 1 to 5 µM

**Q.** How did the IC50 turn out when `C[C@H]1C(=O)Nc2c(CO)nc(NCc3cnn(Cc4ccc(C(F)(F)F)nc4)c3)nc2N1C` [Compound 487, (7S)-4-(hydroxymethyl)-7,8-dimethyl-2-(((1-((6-(trifluoromethyl)pyridin-3-yl)methyl)-1H-pyrazol-4-yl)methyl)amino)-7,8-dihydropteridin-6(5H)-one] was run?
**A.** 0.3 to 1 µM
